ChEMBL document CHEMBL4033632, “Design, synthesis and biological activity of novel donepezil derivatives bearing N-benzyl pyridinium moiety as potent and dual binding site acetylcholinesterase inhibitors” (Eur J Med Chem, 2017)
Calls of active or inactive are those of the source. The rule behind the calls is not given here.

Assays:
[1] = Selectivity index, ratio of IC50 for equine serum BuChE to IC50 for Electric eel AChE
[2] = biological target: Amyloid-beta precursor protein (Homo sapiens) (UniProt P05067); assay: Inhibition of HFIP-pretreated amyloid beta (1 to 42) (unknown origin) self-induced aggregation at 20 uM incubated for 46 to 48 hrs by thioflavin-T fluorescence assay relative to control
Acetylcholinesterase [3] = biological target: Acetylcholinesterase (Homo sapiens, UniProt P22303); assay: Inhibition of human erythrocyte AChE using acetylthiocholine iodide as substrate pretreated for 6 mins followed by substrate addition measured up to 180 sec by Ellman's method
[4] = Antioxidant activity assessed as trolox equivalents of DPPH radical scavenging activity at 25 uM after 30 mins by UV-vis spectrophotometry; assay type: functional
Acetylcholinesterase [5] = biological target: Acetylcholinesterase (Electrophorus electricus, UniProt O42275); assay: Inhibition of electric eel AChE using acetylthiocholine iodide as substrate pretreated for 6 mins followed by substrate addition measured up to 180 sec by Ellman's method
Cholinesterase = Cholinesterase (Equus caballus, UniProt P81908); assay: Inhibition of equine serum BuChE using s-butyrylthiocholine iodide as substrate preincubated for 6 mins followed by substrate addition measured up to 180 sec by Ellman's method
physchem = settings: PAMPA
Description: Permeability of the compound at 200 uL after 16 hrs by PAMPA-BBB assay

PC-12 [6] = assay: Neuroprotective activity against amyloid beta (1 to 42 residues) induced cell death in rat PC12 cells assessed as cell viability at 1.56 uM preincubated for 2 hrs followed by amyloid beta (1 to 42 residues) addition measured after 24 hrs by MTT assay (reference value: 50.5%); assay type: functional; settings: read-out: Activity
PC-12 [7] = assay: Neuroprotective activity against H2O2-induced oxidative damage in rat PC12 cells assessed as increase in cell viability at 6.25 uM after 24 hrs by MTT assay; assay type: functional, cell-based
PC-12 [8] = assay: Neuroprotective activity against H2O2-induced oxidative damage in rat PC12 cells assessed as cell viability at 12.5 uM after 24 hrs by MTT assay relative to control; assay type: functional; settings: PC-12, 24 h, read-out: Activity
PC-12 [9] = assay: Neuroprotective activity against amyloid beta (1 to 42 residues) induced cell death in rat PC12 cells assessed as cell viability at 12.5 uM preincubated for 2 hrs followed by amyloid beta (1 to 42 residues) addition measured after 24 hrs by MTT assay (reference value: 50.5%); assay type: functional; settings: read-out: Activity
Mus musculus [10] = assay: Toxicity in Kunming mouse assessed as body weight loss up to 2000 mg/kg, po measured up to 14 days post dose; assay type: organism-based; settings: in vivo, 336 h
Mus musculus [11] = assay: Toxicity in Kunming mouse assessed as mortality up to 2000 mg/kg, po measured up to 14 days post dose; assay type: organism-based; settings: in vivo, 336 h
PC-12 [12] = assay: Cytotoxicity against rat PC12 cells assessed as effect on cell viability at 6 to 100 uM after 24 hrs by MTT assay; assay type: cell-based; settings: pc-12, 24 h
Mus musculus [13] = assay: Toxicity in Kunming mouse assessed as effect on food consumption up to 2000 mg/kg, po measured up to 14 days post dose; assay type: organism-based; settings: in vivo, 336 h
PC-12 [14] = assay: Neuroprotective activity against amyloid beta (1 to 42 residues) induced cell death in rat PC12 cells assessed as cell viability at 3.12 uM preincubated for 2 hrs followed by amyloid beta (1 to 42 residues) addition measured after 24 hrs by MTT assay (reference value: 50.5%); assay type: functional; settings: read-out: Activity
PC-12 [15] = assay: Neuroprotective activity against amyloid beta (1 to 42 residues) induced cell death in rat PC12 cells assessed as cell viability at 6.25 uM preincubated for 2 hrs followed by amyloid beta (1 to 42 residues) addition measured after 24 hrs by MTT assay (reference value: 50.5%); assay type: functional; settings: read-out: Activity
Mus musculus [16] = assay: Toxicity in Kunming mouse assessed as effect on water consumption up to 2000 mg/kg, po measured up to 14 days post dose; assay type: organism-based; settings: in vivo, 336 h
[17] = biological target: Acetylcholinesterase (Electrophorus electricus) (UniProt O42275); assay: Mixed-type inhibition of electric eel AChE at 1.25 to 5 nM using varying levels of acetylthiocholine iodide substrate by Lineweaver-Burk plot analysis
[18] = biological target: Amyloid-beta precursor protein (Homo sapiens) (UniProt P05067); assay: Inhibition of amyloid beta (1 to 42) (unknown origin) self-induced aggregation assessed as reduction in amyloid beta fibrils by transmission electron microscopic analysis

Sequence of Acetylcholinesterase (Homo sapiens, UniProt P22303) (P22303 whole entry): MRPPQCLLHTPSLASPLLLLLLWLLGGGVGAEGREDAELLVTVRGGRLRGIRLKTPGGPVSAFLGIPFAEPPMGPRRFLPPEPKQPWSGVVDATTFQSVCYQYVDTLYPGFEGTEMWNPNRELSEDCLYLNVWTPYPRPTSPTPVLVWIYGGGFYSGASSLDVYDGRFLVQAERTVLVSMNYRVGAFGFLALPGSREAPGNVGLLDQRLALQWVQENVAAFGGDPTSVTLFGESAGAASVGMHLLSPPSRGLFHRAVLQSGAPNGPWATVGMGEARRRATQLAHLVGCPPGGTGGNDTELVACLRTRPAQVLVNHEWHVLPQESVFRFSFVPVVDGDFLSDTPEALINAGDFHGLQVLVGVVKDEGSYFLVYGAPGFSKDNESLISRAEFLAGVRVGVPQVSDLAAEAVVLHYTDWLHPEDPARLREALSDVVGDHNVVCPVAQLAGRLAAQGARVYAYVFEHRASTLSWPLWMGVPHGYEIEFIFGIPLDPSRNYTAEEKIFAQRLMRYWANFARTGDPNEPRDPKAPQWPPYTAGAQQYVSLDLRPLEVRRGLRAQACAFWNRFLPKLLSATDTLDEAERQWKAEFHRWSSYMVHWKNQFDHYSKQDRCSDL
Sequence of Acetylcholinesterase (Electrophorus electricus, UniProt O42275) (O42275 whole entry): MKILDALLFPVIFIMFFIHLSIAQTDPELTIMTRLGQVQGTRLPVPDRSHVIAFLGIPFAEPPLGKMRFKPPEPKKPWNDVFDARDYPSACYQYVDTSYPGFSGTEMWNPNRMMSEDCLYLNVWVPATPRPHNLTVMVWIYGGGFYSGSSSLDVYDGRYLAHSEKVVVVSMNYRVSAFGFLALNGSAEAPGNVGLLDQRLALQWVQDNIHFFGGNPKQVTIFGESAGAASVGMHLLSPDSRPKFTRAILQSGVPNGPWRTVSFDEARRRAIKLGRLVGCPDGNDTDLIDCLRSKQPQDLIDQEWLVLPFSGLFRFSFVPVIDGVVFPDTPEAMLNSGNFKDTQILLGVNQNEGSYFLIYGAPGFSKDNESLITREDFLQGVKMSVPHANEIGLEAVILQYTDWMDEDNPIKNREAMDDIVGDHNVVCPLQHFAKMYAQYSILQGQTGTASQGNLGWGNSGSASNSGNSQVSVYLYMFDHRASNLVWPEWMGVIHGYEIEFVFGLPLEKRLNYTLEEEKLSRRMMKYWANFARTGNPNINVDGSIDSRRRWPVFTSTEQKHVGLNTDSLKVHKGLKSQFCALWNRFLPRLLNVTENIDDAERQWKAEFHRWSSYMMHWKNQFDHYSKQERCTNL
Sequence of Amyloid-beta precursor protein (Homo sapiens) (P05067 whole entry): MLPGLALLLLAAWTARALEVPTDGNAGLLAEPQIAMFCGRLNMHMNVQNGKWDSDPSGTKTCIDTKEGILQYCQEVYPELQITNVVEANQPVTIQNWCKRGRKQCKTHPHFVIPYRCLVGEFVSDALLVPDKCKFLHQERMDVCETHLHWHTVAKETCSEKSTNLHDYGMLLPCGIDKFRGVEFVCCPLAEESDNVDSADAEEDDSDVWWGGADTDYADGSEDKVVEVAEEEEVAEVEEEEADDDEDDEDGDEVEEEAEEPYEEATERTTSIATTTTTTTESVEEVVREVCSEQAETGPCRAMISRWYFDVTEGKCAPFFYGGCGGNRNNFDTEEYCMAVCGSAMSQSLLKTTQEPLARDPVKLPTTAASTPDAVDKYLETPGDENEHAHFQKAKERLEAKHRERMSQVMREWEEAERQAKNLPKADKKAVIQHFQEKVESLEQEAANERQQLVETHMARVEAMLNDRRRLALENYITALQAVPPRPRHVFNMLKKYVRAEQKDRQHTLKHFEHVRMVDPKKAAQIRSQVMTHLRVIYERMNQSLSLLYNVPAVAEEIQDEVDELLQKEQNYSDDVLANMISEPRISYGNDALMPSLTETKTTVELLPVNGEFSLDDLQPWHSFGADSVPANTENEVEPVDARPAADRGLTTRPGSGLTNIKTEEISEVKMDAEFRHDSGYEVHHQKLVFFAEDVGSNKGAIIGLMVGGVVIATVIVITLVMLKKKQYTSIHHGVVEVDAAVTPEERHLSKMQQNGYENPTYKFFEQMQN
Sequence of Cholinesterase (P81908 whole entry): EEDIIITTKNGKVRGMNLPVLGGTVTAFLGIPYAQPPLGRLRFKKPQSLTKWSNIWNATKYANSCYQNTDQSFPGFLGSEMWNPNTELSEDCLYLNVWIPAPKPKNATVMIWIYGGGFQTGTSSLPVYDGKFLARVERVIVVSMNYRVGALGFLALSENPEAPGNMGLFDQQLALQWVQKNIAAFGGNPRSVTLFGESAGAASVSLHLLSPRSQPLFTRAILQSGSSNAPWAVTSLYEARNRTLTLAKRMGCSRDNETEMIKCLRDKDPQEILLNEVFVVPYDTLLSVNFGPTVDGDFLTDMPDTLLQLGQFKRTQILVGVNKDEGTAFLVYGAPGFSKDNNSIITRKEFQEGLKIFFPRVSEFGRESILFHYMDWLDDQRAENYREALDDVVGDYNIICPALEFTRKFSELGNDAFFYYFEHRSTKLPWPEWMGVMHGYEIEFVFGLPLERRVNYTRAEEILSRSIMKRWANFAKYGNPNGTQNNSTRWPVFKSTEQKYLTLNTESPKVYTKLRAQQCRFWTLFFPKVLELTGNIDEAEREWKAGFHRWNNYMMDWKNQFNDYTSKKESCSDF
Sequence of Acetylcholinesterase (Electrophorus electricus) (O42275 24-633 limits assumed): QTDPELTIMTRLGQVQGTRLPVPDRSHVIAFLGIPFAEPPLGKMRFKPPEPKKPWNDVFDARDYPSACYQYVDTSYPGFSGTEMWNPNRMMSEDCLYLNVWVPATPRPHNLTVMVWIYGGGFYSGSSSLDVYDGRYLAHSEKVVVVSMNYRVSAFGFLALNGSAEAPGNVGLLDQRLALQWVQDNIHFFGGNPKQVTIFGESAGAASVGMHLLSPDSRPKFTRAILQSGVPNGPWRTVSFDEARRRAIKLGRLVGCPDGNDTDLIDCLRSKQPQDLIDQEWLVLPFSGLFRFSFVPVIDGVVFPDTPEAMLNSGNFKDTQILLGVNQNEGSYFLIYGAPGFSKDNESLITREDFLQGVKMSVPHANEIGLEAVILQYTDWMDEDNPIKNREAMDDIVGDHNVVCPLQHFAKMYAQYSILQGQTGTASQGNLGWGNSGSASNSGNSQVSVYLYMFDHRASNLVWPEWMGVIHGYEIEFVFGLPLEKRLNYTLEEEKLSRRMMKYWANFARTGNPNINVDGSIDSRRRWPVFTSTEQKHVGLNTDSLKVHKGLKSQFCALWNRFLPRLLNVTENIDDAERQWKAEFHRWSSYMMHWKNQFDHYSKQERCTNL

| SMILES | Ratio IC50 [1] | inhibition [2] | IC50 (Acetylcholinesterase [3]) | Activity [4] | IC50 (Acetylcholinesterase [5]) | also measured |
| --- | --- | --- | --- | --- | --- | --- |
| COc1cc2c(cc1OC)C(=O)/C(=C/c1cc[n+](Cc3cccc([N+](=O)[O-])c3)cc1)C2 | > 1690 | 50.8% | 3.6 nM | 0.33 equiv | 5.9 nM | – |
| COc1cc2c(cc1OC)C(=O)/C(=C/c1cc[n+](Cc3ccc(Br)cc3)cc1)C2 | > 129 | 50.2% | 69.7 nM | 0.38 equiv | 77.3 nM | – |
| COc1cc2c(cc1OC)C(=O)/C(=C/c1cc[n+](Cc3ccccc3)cc1)C2 | > 3450 | 45.6% | 3.4 nM | 0.51 equiv | 2.9 nM | – |
| COc1cc2c(cc1OC)C(=O)/C(=C/c1cc[n+](Cc3ccc([N+](=O)[O-])cc3)cc1)C2 | > 130 | 47.2% | 59.5 nM | 0.49 equiv | 74.6 nM | – |
| COc1cc2c(cc1OC)C(=O)/C(=C/c1cc[n+](Cc3ccccc3C)cc1)C2 | > 1960 | 38.7% | 5.8 nM | 0.41 equiv | 5.1 nM | – |
| COc1cc2c(cc1OC)C(=O)/C(=C/c1cc[n+](Cc3ccc(F)cc3)cc1)C2 | 1170 | 47.6% | 4.1 nM | 0.51 equiv | 4.6 nM | IC50 (Cholinesterase): 5400 nM |
| COc1cc2c(cc1OC)C(=O)C(CC1CCN(Cc3ccccc3)CC1)C2 (stereo not given) | – | – | – | 0.63 equiv | – | – |
| C[C@]12CC[C@@H]3c4ccc(O)cc4CC[C@H]3[C@@H]1CC[C@@H]2O [ESTRADIOL] | – | – | – | – | – | Papp at 16 h (physchem): 11.3 ×10⁻⁶ cm/s |
| COc1cc2c(cc1OC)C(=O)/C(=C/c1cc[n+](Cc3ccc(C)cc3)cc1)C2 | > 391 | 49.9% | 18.6 nM | 0.39 equiv | 25.6 nM | – |
| COc1cc2c(cc1OC)C(=O)/C(=C/c1cc[n+](Cc3ccccc3Br)cc1)C2 | > 3450 | 56.7% | 3.8 nM | 0.37 equiv | 2.9 nM | – |
| COc1cc2c(cc1OC)C(=O)/C(=C/c1cc[n+](Cc3cccc(C)c3)cc1)C2 | > 2380 | 42.6% | 4 nM | 0.47 equiv | 4.2 nM | – |
| COc1cc2c(cc1OC)C(=O)/C(=C/c1cc[n+](Cc3cccc(F)c3)cc1)C2 | > 2940 | 43.5% | 2.9 nM | 0.47 equiv | 3.4 nM | – |
| COc1cc2c(cc1OC)C(=O)/C(=C/c1cc[n+](Cc3ccccc3F)cc1)C2.[Br-] | – | 53.7% | 0.8 nM | 0.54 equiv | – | viability at 1.56 µM (PC-12 [6]): 53.7%; Papp at 16 h (physchem): 4.97 ×10⁻⁶ cm/s; Activity (PC-12 [7]): Active; viability at 12.5 µM (PC-12 [8]): 73.2%; viability at 12.5 µM (PC-12 [9]): 76.3%; Activity (Mus musculus [10]): Non-Toxic; Activity (Mus musculus [11]): Non-Toxic; Activity (PC-12 [12]): Non-Toxic; Activity (Mus musculus [13]): Non-Toxic; viability at 3.12 µM (PC-12 [14]): 66.5%; viability at 6.25 µM (PC-12 [15]): 72.3%; Activity (Mus musculus [16]): Non-Toxic; inhibition [17]: Active; inhibition [18]: Active |
| COc1cc2c(cc1OC)C(=O)/C(=C/c1cc[n+](Cc3cccc(Br)c3)cc1)C2 | > 2270 | 53.4% | 5.2 nM | 0.32 equiv | 4.4 nM | – |
